# Source: US20260315609A1, “MIXED VASOPRESSIN RECEPTOR AGONIST-ANTAGONIST FOR TREATING END-STAGE LIVER DISEASE AND COMPLICATIONS ASSOCIATED THEREOF” (FERRING B.V., priority 2022, published 2026)
# Like-named read-outs stand apart in the source and are kept apart here. Starred links: 1 amine or outer side, 2 acyl side, 3 side chain; linkers in the order of their positions; H or OH if unused. Positions of bridges follow the written chain, without caps; N, C: chain ends. Non-standard residues stand in square brackets, D forms with d. Residues, ends and D or L forms follow the SMILES beside them. Chains are numbered I, II in the order given. *: point of attachment. isoGln = NC(=O)[C@H](CCC(=O)[*:2])N[*:1]; εLys = N[C@@H](CCCCN[*:1])C(=O)[*:2]; Dab = NCC[C@H](N)C(=O)O; PhAc = O=C(Cc1ccccc1)*
# Tests used:
# [1] = PK of Compound 1, 6-hour intravenous infusion in healthy men and women (Period 1); assay type: in vivo, human
# Procedure: The administered volume was recorded for each subject.
# (§1) In some instances, endpoints of the study were: vital signs (e.g., supine blood pressure, pulse, and body temperature), electrocardiogram (ECG) (e.g., intervals, rhythm, and morphology), cardiac function (e.g., cardiac output using echocardiography), peripheral blood flow/tissue perfusion (e.g., by skin color), venous blood gases (e.g., lactate), urinary output, clinical chemistry, hematology, hemostasis, and urinalysis, adverse events (AEs) (e.g., type, frequency, and intensity), pharmacokinetics (e.g., AUC, AUCt, AUCτ, % Extrap AUC, Cmax, tmax, CL, Vz, t1/2, MRT, Vss, F, Ae, and CLR), and metabolite pattern in plasma and urine.
# [2] = Excretion of Compound 1 in urine of healthy subjects; assay type: in vivo, human; conditions: for dose excreted: human, urine, read-out: fraction of dose excreted unchanged in urine
# Procedure: Urinalysis was performed locally by means of a dip-stick test. […] In case any result of the dipstick was abnormal and clinically significant, a new urine test was to be performed. If the abnormal result was confirmed, further examination could be initiated at the discretion of the Investigator. Clinically significant abnormal findings were reported as AEs. The metabolite pattern of Compound 1 in plasma and urine were measured.
# as §1
# [3] = M1 formation, single dose subcutaneous infusion in rats; assay type: in vivo, rat; conditions: s.c. infusion
# Source text: The incision for the mini-pump was on the cranial right side of the spine, a trocar or hemostats may be inserted to create a subcutaneous pocket, and the pump inserted into the subcutaneous pocket with the delivery port of the mini-pump pointing cranially. The doses were given into mid-dorsal area via surgical implantation of the pump filled with test article. Following insertion of the implant, a 4 cm×4 cm area surrounding the pump will be delineated and designated as the test site. The test site will be delineated and remarked as necessary thereafter.
# Blood samples were collected from each rat at various timepoints, including 0.25 hour (hr), 1 hr, 3 hr, 7 hr, 24 hr, 25 hr, 27 hr, and 29 hr.
# [4] = tested on: blood lactate; experiment: Blood lactate in cynomolgus monkeys after SC Compound 1; assay type: in vivo, cynomolgus monkey; conditions: 15-360 min
# Procedure: Blood samples (0.5 mL in EDTA) were collected from a femoral or saphenous vein before dosing and at multiple times continuing out to 480 min after administration. Lactate concentration was also measured as part of PD analysis and collected as EDTA whole blood from the pre-dose, 15-, 40-, 90-, 180-, and 360-min post-administration samples immediately after collection using a Lactate Plus (Nova Biomedical) meter. For blood sample analysis, plasma was prepared from whole blood. Subsequent bioanalysis included compound extraction followed by standard LC/MS methods to determine compound concentration in each sample.
compound,measurement,setting,value
"CC[C@H](C)[C@@H]1NC(=O)[C@H](Cc2ccccc2)NC(=O)[C@@H](N)CSSC[C@@H](C(=O)N2CCC[C@H]2C(=O)N[C@@H](CCNC(=O)[C@@H](N)CCCCNC(=O)[C@H](CCCCNC(C)=O)NC(=O)CC[C@H](NC(=O)[C@H](CCCNC(=N)N)NC(=O)[C@@H]2CCCN2C(=O)[C@H](C)NC(=O)[C@H](CC(N)=O)NC(=O)[C@H](CCC(N)=O)NC(=O)[C@H](Cc2ccccc2)NC(=O)[C@@H](Cc2ccc(OC)cc2)NC(=O)Cc2ccccc2)C(N)=O)C(=O)NCC(N)=O)NC(=O)[C@H](CC(N)=O)NC(=O)[C@H](CCC(N)=O)NC1=O [Compound 1, Glycinamide, L-cysteinyl-L-phenylalanyl-L-isoleucyl-L-glutaminyl-L-asparaginyl-L-cysteinyl-L-prolyl-N4-(phenylacetyl-O-methyl-D-tyrosyl-L-phenylalanyl-L-glutaminyl-L-asparaginyl-L-alanyl-L-prolyl-L-arginyl-L-isoglutamyl-N5-acetyl-L-lysyl-L-ε-lysyl)-L-2,4-diaminobutyryl-, cyclic (1→6)-disulfide] (I: H-CFIQNCP[Dab]G-NH2 / II: PhAc-[dY](Me)FQNAPR[isoGln]K(Ac)[εLys]; disulfide I:1-I:6; amide I:8-II:C)",CL renal,"[1]; human, in vivo, iv, 0.1 mg, i.v. 0.1 mg, read-out: Renal CL, geometric mean (converted)",14.5 mL/min
same,CL renal,"[1]; human, in vivo, iv, 0.1 mg, i.v. 0.1 mg, read-out: Renal CL, mean (converted)",14.5 mL/min
same,CL renal,"[1]; human, in vivo, iv, 0.3 mg, i.v. 0.3 mg, read-out: Renal CL, geometric mean (converted)",11 mL/min
same,CL renal,"[1]; human, in vivo, iv, 0.3 mg, i.v. 0.3 mg, read-out: Renal CL, mean (converted)",11 mL/min
same,CL renal,"[1]; human, in vivo, iv, 0.45 mg, i.v. 0.45 mg, read-out: Renal CL, geometric mean (converted)",14 mL/min
same,CL renal,"[1]; human, in vivo, iv, 0.45 mg, i.v. 0.45 mg, read-out: Renal CL, mean (converted)",14.8 mL/min
same,CL renal,"[1]; human, in vivo, iv, 0.6 mg, i.v. 0.6 mg, read-out: Renal CL, geometric mean (converted)",15.5 mL/min
same,CL renal,"[1]; human, in vivo, iv, 0.6 mg, i.v. 0.6 mg, read-out: Renal CL, mean (converted)",15.8 mL/min
same,CL renal,"[1]; human, in vivo, iv, 0.9 mg, i.v. 0.9 mg, read-out: Renal CL, geometric mean (converted)",14.8 mL/min
same,CL renal,"[1]; human, in vivo, iv, 0.9 mg, i.v. 0.9 mg, read-out: Renal CL, mean (converted)",15.8 mL/min
same,Vd,"[1]; human, in vivo, iv, read-out: distribution volume (summary)",15 to 20 L
same,terminal half-life (summary),[1]; i.v.,about 1.5 hours
same,total clearance (summary),[1]; i.v.,about 13 L/h
same,"AUC, geometric mean",[1]; i.v. 0.1 mg,6.96 ng·h/mL
same,"AUC, mean",[1]; i.v. 0.1 mg,7.01 ng·h/mL
same,"Cmax, geometric mean",[1]; i.v. 0.1 mg,1.18 ng/mL
same,"Cmax, mean",[1]; i.v. 0.1 mg,1.19 ng/mL
same,"T1/2, harmonic mean",[1]; i.v. 0.1 mg,1.2 h
same,"Tot. CL, geometric mean",[1]; i.v. 0.1 mg,14.4 L/h
same,"Tot. CL, mean",[1]; i.v. 0.1 mg,14.5 L/h
same,"Vss, geometric mean",[1]; i.v. 0.1 mg,21.7 L
same,"Vss, mean",[1]; i.v. 0.1 mg,21.8 L
same,"tmax, mean",[1]; i.v. 0.1 mg,5.4 h
same,"tmax, median",[1]; i.v. 0.1 mg,5.0 h
same,"AUC, geometric mean",[1]; i.v. 0.3 mg,24.6 ng·h/mL
same,"AUC, mean",[1]; i.v. 0.3 mg,24.9 ng·h/mL
same,"Cmax, geometric mean",[1]; i.v. 0.3 mg,4.45 ng/mL
same,"Cmax, mean",[1]; i.v. 0.3 mg,4.49 ng/mL
same,"T1/2, harmonic mean",[1]; i.v. 0.3 mg,1.2 h
same,"Tot. CL, geometric mean",[1]; i.v. 0.3 mg,12.2 L/h
same,"Tot. CL, mean",[1]; i.v. 0.3 mg,12.3 L/h
same,"Vss, geometric mean",[1]; i.v. 0.3 mg,14.5 L
same,"Vss, mean",[1]; i.v. 0.3 mg,15.0 L
same,"tmax, mean",[1]; i.v. 0.3 mg,5.2 h
same,"tmax, median",[1]; i.v. 0.3 mg,5.5 h
same,"AUC, geometric mean",[1]; i.v. 0.45 mg,34.1 ng·h/mL
same,"AUC, mean",[1]; i.v. 0.45 mg,34.5 ng·h/mL
same,"Cmax, geometric mean",[1]; i.v. 0.45 mg,6.20 ng/mL
same,"Cmax, mean",[1]; i.v. 0.45 mg,6.26 ng/mL
same,"Tot. CL, geometric mean",[1]; i.v. 0.45 mg,13.2 L/h
same,"Tot. CL, mean",[1]; i.v. 0.45 mg,13.3 L/h
same,"Vss, geometric mean",[1]; i.v. 0.45 mg,15.2 L
same,"Vss, mean",[1]; i.v. 0.45 mg,15.5 L
same,"tmax, mean",[1]; i.v. 0.45 mg,5.0 h
same,"tmax, median",[1]; i.v. 0.45 mg,5.0 h
same,"AUC, geometric mean",[1]; i.v. 0.6 mg,46.5 ng·h/mL
same,"AUC, mean",[1]; i.v. 0.6 mg,47.5 ng·h/mL
same,"Cmax, geometric mean",[1]; i.v. 0.6 mg,8.32 ng/mL
same,"Cmax, mean",[1]; i.v. 0.6 mg,8.45 ng/mL
same,"Tot. CL, geometric mean",[1]; i.v. 0.6 mg,12.9 L/h
same,"Tot. CL, mean",[1]; i.v. 0.6 mg,13.2 L/h
same,"Vss, geometric mean",[1]; i.v. 0.6 mg,15.4 L
same,"Vss, mean",[1]; i.v. 0.6 mg,16.3 L
same,"tmax, mean",[1]; i.v. 0.6 mg,5.4 h
same,"tmax, median",[1]; i.v. 0.6 mg,6.0 h
same,"AUC, geometric mean",[1]; i.v. 0.9 mg,71.8 ng·h/mL
same,"AUC, mean",[1]; i.v. 0.9 mg,72.5 ng·h/mL
same,"Cmax, geometric mean",[1]; i.v. 0.9 mg,12.7 ng/mL
same,"Cmax, mean",[1]; i.v. 0.9 mg,12.8 ng/mL
same,"T1/2, harmonic mean",[1]; i.v. 0.9 mg,~1.7 h
same,"T1/2, mean",[1]; i.v. 0.9 mg,2.0 h
same,"Tot. CL, geometric mean",[1]; i.v. 0.9 mg,12.5 L/h
same,"Tot. CL, mean",[1]; i.v. 0.9 mg,12.7 L/h
same,"Vss, geometric mean",[1]; i.v. 0.9 mg,15.3 L
same,"Vss, mean",[1]; i.v. 0.9 mg,15.5 L
same,"tmax, mean",[1]; i.v. 0.9 mg,5.3 h
same,"tmax, median",[1]; i.v. 0.9 mg,6.0 h
same,dose proportionality of AUC and Cmax,"[1]; i.v., 0.1-0.9 mg",proportionality for both parameters
same,harmonic mean terminal half-life,"[1]; i.v., dose groups other than 0.6 and 0.9 mg",1.2 to 1.3 h
same,"exposure (AUC, Cmax), women versus men","[1]; i.v., also s.c.",higher exposure in women than in men
same,terminal half-life,[1]; route not stated,1.5 to 2 h
same,dose excreted,[2]; iv,< 10%
same,dose excreted,[2]; sc,< 5%
same,"amount excreted in urine, 4-8 hours",[2]; i.v. 0.1 mg,about 3 μg
same,"amount excreted in urine, 4-8 hours",[2]; i.v. 0.3 mg,~9 µg
same,"amount excreted in urine, 4-8 hours",[2]; i.v. 0.45 mg,~16 µg
same,"amount excreted in urine, 4-8 hours",[2]; i.v. 0.6 mg,~24 µg
same,"amount excreted in urine, 4-8 hours",[2]; i.v. 0.9 mg,~37 µg
same,"amount excreted in urine, first 4 hours","[2]; s.c. 0.1 mg, 1st administration",about 2 μg
same,"amount excreted in urine, first 4 hours","[2]; s.c. 0.1 mg, 5th administration",about 0.3 μg
same,"amount excreted in urine, first 4 hours","[2]; s.c. 0.3 mg, 1st administration",~3 µg
same,"amount excreted in urine, first 4 hours","[2]; s.c. 0.3 mg, 5th administration",~1.5 µg
same,metabolised,"[3]; rat, plasma, sc, 4.8 mg/kg, rats",< 20%
same,adverse events,[3]; rats and mini-pigs,No relevant adverse events were reported
same,blood lactate versus pre-dose,[4],not notably increased
